Ends that are not written are not given here.
How the values were obtained:
Cry j I reactive T cells = test: T cell proliferation assay, Cry j I primed T cell lines (Example 6); assay type: cell-based, human; details: for T cell reactivity: Example 21 narrative, parent peptides of CJI-44.8; for T cell line response: panel of twenty-five patients, FIG. 14
Protocol: Viable cells were purified by LSM centrifugation and cultured in complete medium supplemented with 5 units recombinant human IL-2/ml and 5 units recombinant human IL-4/ml for up to three weeks until the cells no longer responded to lymphokines and were considered “rested”. The ability of the T cells to proliferate to selected peptides, recombinant Cry j I (rCry j I), purified native Cry j I, or recombinant Amb aI.1 (rAmb aI.1) or a positive control, phyto-hemaglutinin (PHA) was then assessed. For assay, 2×10^4 rested cells were restimulated in the presence of 2×10^4 autologous Epstein-Barr virus (EBV)-transformed B cells (prepared as described below) (gamma-irradiated with 25,000 RADS) with 2-50 μg/ml of selected peptides, Cry j I, purified native Cry j I or rAmb a I.1 or PHA, in a volume of 200 μl complete medium in duplicate or triplicate wells in 96-well round bottom plates for 2-4 days. […] Each well then received 1 μCi tritiated thymidine for 16-20 hours. The counts incorporated were collected onto glass fiber filter mats and processed for liquid scintillation counting. […] The titrations were used to optimize the dose of peptides in T cell assays. The maximum response in a titration of each peptide is expressed as the stimulation index (S.I.). The S.I. is the counts per minute (CPM) incorporated by cells in response to peptide, divided by the CPM incorporated by cells in medium only.
The above procedure was followed with a number of other patients. […] The bars represent the positivity index. Above each bar is the percent of positive responses with an S.I. of at least two to the peptide or protein in the group of patients tested. In parenthesis above each bar are the mean stimulation indices for each peptide or protein for the group of patients tested.
Autologous EBV-transformed cell lines were y-irradiated with 25,000 Rad and used as antigen presenting cells in secondary proliferation assays and secondary bulk stimulations. These EBV-transformed cell lines were made by incubating 5×10^6 PBL with 1 ml of B-59/8 Marmoset cell line (ATCC CRL1612, American Type Culture Collection, Rockville, Md.) conditioned medium in the presence of 1 μg/ml phorbol 12-myristate 13-acetate (PMA) at 37° C. for 60 minutes in 12×75 mm polypropylene round-bottom Falcon snap cap tubes (Becton Dickinson Labware, Lincoln Park, N.J.). These cells were then diluted to 1.25×10^6 cells/ml in RPMI-1640 as described above except supplemented with 10% heat-inactivated fetal bovine serum and cultured in 200 μl aliquots in flat bottom culture plates until visible colonies were detected. They were then transferred to larger wells until the cell lines were established.

[1] = tested on: Cry j II reactive T cells; test: T cell proliferation assay, Cry j II primed T cell lines (Example 19); assay type: cell-based, human
Protocol: Long term T cell lines were established by stimulation of 2×10^6 PBL/ml in bulk cultures of complete medium (RPMI-1640, 2 mM L-glutamine, 100 U/ml penicillin/streptomycin, 5×10^−5M 2-mercaptoethanol, and 10 mM HEPES supplemented with 5% heat inactivated human AB serum) with 10 μg/ml of partially purified native Cry j II for 7 days at 37° C. in a humidified 5% CO2 incubator to select for Cry j II reactive T cells. This amount of priming antigen was determined to be optimal for the activation of T cells from most Japanese cedar pollen Cry j II allergic patients. Viable cells were purified by LSM centrifugation and cultured in complete medium supplemented with 5 units recombinant human IL-2/ml and 5 units recombinant human IL-4/ml for up to three weeks until the cells no longer responded to lymphokines and were considered “rested”. The ability of the T cells to proliferate to peptides Cry j IIA (SEQ ID NO: 185) and Cry j IIB (SEQ ID NO: 186), recombinant Cry j II (rCry j II) (SEQ ID NO: 134), purified native Cry j II, was then assessed. For assay, 2×10^4 rested cells were restimulated in the presence of 2×10^4 autologous Epstein-Barr virus (EBV)-transformed B cells (prepared as described in Example 6) (gamma-irradiated with 25,000 RADS) with 2-50 ’g/ml of rCry j II (SEQ ID NO: 134), purified native Cry j II, peptides Cry j IIA (SEQ ID NO: 185) and Cry j IIB (SEQ ID NO: 186), positive control (PHA), negative control (Amb a I.1), in a volume of […] complete medium in duplicate or triplicate wells in 96-well round bottom plates for 2-4 days. […] Each well then received 1 μCi tritiated thymidine for 16-20 hours. The counts incorporated were collected onto glass fiber filter mats and processed for liquid scintillation counting. The maximum response in a titration of each peptide is expressed as the stimulation index (S.I.). The S.I. is the counts per minute (CPM) incorporated by cells in response to peptide, divided by the CPM incorporated by cells in medium only. A positivity index may be calculated by multiplying the mean S.I. (indicated above each bar in FIGS. 42 and 43) by the percentage of individuals responding to the peptide (indicated in parentheses above each bar in FIGS. 42 and 43). […]

[2] = Solubility, pH range protocol procedure; assay type: physicochemical; details: pH range pH6 to pH8
From the text: (§1) Of the above group of modified peptides, several peptides have been identified as “unique” modified peptides. […] Certain modified peptides are characterized as “unique” due to the difficulties encountered when developing a modified peptide which meets all of the stringent requirements of a “unique” peptide defined herein. In many cases, multiple modifications of a parent peptide are attempted prior to identifying a modified derivitive peptide which meets all the characteristics of a “unique” modified peptide. Unique modified peptides are particularly useful as candidate peptides for formulating injectable multipeptide therapeutic formulations of the invention because “unique” modified peptides are soluble and stable in the same physiologically acceptable pH range as well as elicit the necessary T cell reactivity of a therapeutic peptide of the invention. “Unique” modified peptides of the invention include but are not limited to the following group of modified peptides: CJ1-24.5, CJ1-43.39, CJ1-43.50, CJ1-44.8, and CJ1-44.9 all as shown in FIGS. 20 and 44. Example 21 describes the development and identification of “unique” modified peptides of the invention.
(§2) Additional truncation of two C-terminal residues yielded 44.2 (SEQ ID NO: ). […] Thus, 44.2 (SEQ ID NO: ) was further modified by the addition of charged (hydrophilic residues) to the N-terminus and by replacement of the hydrophobic residue Val with the less hydrophobic residue Ala. […] CJI-44.8 (SEQ ID NO: 132) was stable and soluble at greater than 5 mg/ml over the pH range pH6-pH8 in an aqueous buffer.

[3] = Stability in aqueous buffer; assay type: physicochemical; details: pH6 to pH8
From the text: as §1, §2

patients' plasma IgE = test: Direct binding assay of IgE to Cry j I, Cry j II and recombinant Cry j II (Example 18); parameters: species or system human
Protocol: Costar assay plates were coated with Cry j I or Cry j II at 2 μg/mL or recombinant Cry j II preparation at 10 μg/mL (approximately 20% pure) in a volume of 50 μL overnight at 4° C. The coating antigens were removed and the wells were blocked with 0.5% gelatin, PVP (polyvinyl pyrolidine) 1 mg/mL in PBS, 200 μL/well for 2 hours at room temperature. The anti-Cry j I monoclonal antibody, 4B11, was serially diluted in PBS-Tween 20 starting at a 1:1000 dilution. The human plasma were serially diluted in PBS-Tween at a starting dilution of 1:2. For this set 23 plasma samples from patients symptomatic for Japanese cedar pollen allergy chosen for IgE binding analysis. The first antibody incubation proceeded overnight at 4° C. Following three washes with PBS-Tween the second antibodies were added (biotinylated goat anti-mouse Ig or goat anti-human IgE both at 1:2000) and incubated for two hours at room temperature at 100 μL/well. After washing 3 times, […]. This solution was removed and streptavidin-HRPO diluted to 1:10,000, was added at 100 μL/well. The color was allowed to develop for 2-5 minutes. The reaction was stopped by the addition of 100 μL/well of 1M phosphoric acid. Plates were read on a Microplate IL310 Autoreader (Biotek Instruments, Winooski, Vt.) with a 450 nm filter. The absorbance levels of duplicate wells were averaged. A positive binding result, indicated by a plus sign is determined to be a reading of two-fold or greater above background (no first antibody) at the second dilution of plasma ([…]).

Question: Which T cell reactivity (Cry j I reactive T cells) does the source give for “CJ1-31: Cry j I peptide, SEQ ID NO: 56 (DVFYNGAYFVSSGKYEGGNI; listed as Cryptomeria japonica)” here?
Answer: high T-cell reactivity

Question: What about the “T cell line response” value (Cry j I reactive T cells) of the same molecule?
Answer: responded

Question: For “CJ1-32: Cry j I peptide, SEQ ID NO: 57 (SSGKYEGGNIYTKKEAFNVE; listed as Cryptomeria japonica)”, which T cell reactivity (Cry j I reactive T cells) is on record?
Answer: high T-cell reactivity

Question: And the “T cell line response” value (Cry j I reactive T cells)?
Answer: responded

Question: With “Cry j IIG: SEQ ID NO: 191, amino acids 152-175 of Cry j II (GKGVIDGQGKQWWAGQCKWVNGRE; listed as Cryptomeria japonica)” as the molecule, how does the “T cell proliferative response” value ([1]; 9 patients, FIG. 43) read?
Answer: react

Question: For “Cry j IIH: SEQ ID NO: 192, amino acids 386-409 of Cry j II (DSMPCKDIKLSDISLKLTSGKIAS; listed as Cryptomeria japonica)”, which “T cell proliferative response” value ([1]; 9 patients, FIG. 43) is on record?
Answer: react

Question: Which solubility ([2]; aqueous sodium phosphate buffer) does the source give for DDAYSDDKSMKVTVAFNQFGDE [CJ1-43.39] here?
Answer: > 5000 µg/mL

Question: What about the stability [3] of the same molecule?
Answer: stable

Question: Which solubility ([2]; aqueous buffer) does the source give for “DEEGAYFVSSGKYEGGNIYTKKEAFNVEDE [CJ1-44.9]” here?
Answer: > 5000 µg/mL

Question: What about the stability [3] of the same molecule?
Answer: stable

B1: Cry j IIC: recombinant peptide, amino acids 46-163 of Cry j II, SEQ ID NO: 187 (protein, listed as Cryptomeria japonica)
chain: MGHHHHHHEFRKVEHSRHDAINIFNVEKYGAVGDGKHDCTEAFSTAWQAACKNPSAMLLVPGSKKFVVNNLFFNGPCQPHFTFKVDGIIAAYQNPASWKNNRIWLQFAKLTGFTLMGKGVIDGQGKQW
Question: Which “T cell proliferative response” value ([1]; 9 patients, FIG. 43) does the source give for B1 here?
Answer: react

B2: Cry j IID: recombinant peptide, amino acids 164-280 of Cry j II, SEQ ID NO: 188 (protein, listed as Cryptomeria japonica)
chain: MGHHHHHHEFWAGQCKWVNGREICNDRDRPTAIKFDFSTGLIIQGLKLMNSPEFHLVFGNCEGVKIIGISITAPRDSPNTDGIDIFASKNFHLQKNTIGTGDDCVAIGTGSSNIVIEDLICGPGHGI
Question: For B2, which “T cell proliferative response” value ([1]; 9 patients, FIG. 43) is on record?
Answer: react

B3: Cry j IIE: recombinant peptide, amino acids 281-396 of Cry j II, SEQ ID NO: 189 (protein, listed as Cryptomeria japonica)
chain: MGHHHHHHEFSIGSLGRENSRAEVSYVHVNGAKFIDTQNGLRIKTWQGGSGMASHIIYENVEMINSENPILINQFYCTSASACQNQRSAVQIQDVTYKNIRGTSATAAAIQLKCSDSMPCKDIKLSD
Question: With B3 as the molecule, how does the “T cell proliferative response” value ([1]; 9 patients, FIG. 43) read?
Answer: react

B4: Cry j IIF: recombinant peptide, amino acids 397-514 of Cry j II, SEQ ID NO: 190 (protein, listed as Cryptomeria japonica)
chain: MGHHHHHHEFISLKLTSGKIASCLNDNANGYFSGHVIPACKNLSPSAKRKESKSHKHPKTVMVENMRAYDKGNRTRILLGSRPPNCTNKCHGCSPCKAKLVIVHRIMPQEYYPQRWICSCHGKIYHP
Question: With B4 as the molecule, how does the “T cell proliferative response” value ([1]; 9 patients, FIG. 43) read?
Answer: react

B5: rCry j II: recombinant Cry j II expressed in E. coli with His6 leader (protein, listed as Cryptomeria japonica)
chain: MAMKLIAPMAFLAMQLIIMAAAEDQSAQIMLDSVVEKYLRSNRSLRKVEHSRHDAINIFNVEKYGAVGDGKHDCTEAFSTAWQAACKNPSAMLLVPGSKKFVVNNLFFNGPCQPHFTFKVDGIIAAYQNPASWKNNRIWLQFAKLTGFTLMGKGVIDGQGKQWWAGQCKWVNGREICNDRDRPTAIKFDFSTGLIIQGLKLMNSPEFHLVFGNCEGVKIIGISITAPRDSPNTDGIDIFASKNFHLQKNTIGTGDDCVAIGTGSSNIVIEDLICGPGHGISIGSLGRENSRAEVSYVHVNGAKFIDTQNGLRIKTWQGGSGMASHIIYENVEMINSENPILINQFYCTSASACQNQRSAVQIQDVTYKNIRGTSATAAAIQLKCSDSMPCKDIKLSDISLKLTSGKIASCLNDNANGYFSGHVIPACKNLSPSAKRKESKSHKHPKTVMVENMRAYDKGNRTRILLGSRPPNCTNKCHGCSPCKAKLVIVHRIMPQEYYPQRWICSCHGKIYHP
Question: With B5 as the molecule, how does the “T cell proliferative response” value ([1]; 9 patients, FIG. 43) read?
Answer: react

Question: And the “T cell proliferative response” value ([1]; n=6 patients, FIG. 42)?
Answer: respond well

Question: And the “plasma IgE binding response” value (patients' plasma IgE; patient #1034)?
Answer: negative

Question: And the “plasma IgE binding response” value (patients' plasma IgE; patient plasma samples, FIGS. 31-33)?
Answer: further reduction in binding

Question: And the “plasma IgE binding response” value (patients' plasma IgE; patients #1143 and #1146)?
Answer: clearly positive
